Marks after values point to notes of the source that are not given here.
Assays:
[1] = in vitro; compared with ATA; Kamat et al. 1997; cited from earlier work
swine [2] = assay: 2000-2001 swine feed test: 24 hour raw pork loin pH; format: in vivo; conditions: for 24 hour raw pork loin pH, Increase vs. Control: overall ave.
Source text: (§1) Applicants assessed the effects of antioxidant supplementation on meat quality in an experiment in which pork from pigs fed one of four dietary treatments was compared across three genetic lines differing in carcass leanness and intramuscular fat content. Ninety-six pigs were used in the test, thirty-two in each of the three genetic lines. Swine feeding was initiated in September 2000. At about 80 pounds body weight the 32 pigs of each of the three genetic lines were randomly allotted to individual pens. The pigs were fed corn/soy based diets formulated to provide adequate levels of all nutrients. In addition, one of four dietary treatments was assigned to each pen: control, 1,000 ppm NAC, 500 ppm LA and 150 ppm MT.
(§2) The pigs were harvested in November and December 2000 when they had reached an average weight of 260 pounds. Meat tissue quality evaluations occurred on Jan. 28, 2001. At the packing plant individual hot carcass weight, back fat depth and loin depth were measured and lean percent was calculated. Loin pH and loin color value (Minolta L*) were recorded 24 hours post mortem.

swine [3] = assay: 2000-2001 swine feed test: raw pork loin color (Minolta L*); format: in vivo
Source text: as §1, §2
Minolta L* color value was measured objectively using a Minolta colorimeter. The Minolta L* value is an indication of the lightness of the pork loin. A lower value indicates a darker color and thus, higher quality.

swine [4] = conditions: administered to swine; Berg, NPPC Project No. 99-164; cited from earlier work

Question: Which antioxidant activity [1] does the source give for CC(C)=CCC/C(C)=C/CC/C(C)=C/CC[C@]1(C)CCc2cc(O)c(C)c(C)c2O1 [gamma-tocotrienol] here?
Answer: Its antioxidant activity is “greater antioxidant activity than ATA”.

Question: For CC(=O)N[C@@H](CS)C(=O)O [NAC, N-acetylcysteine], which “24 hour raw pork loin pH” value (swine [2]; Line 1 ave., 1,000 ppm in diet) is on record?
Answer: Its value is 6.07^b.

Question: What about the “24 hour raw pork loin pH” value (swine [2]; Line 2 ave., 1,000 ppm in diet) of the same molecule?
Answer: The value was 5.78^a.

Question: What about the “24 hour raw pork loin pH” value (swine [2]; Line 3 ave., 1,000 ppm in diet) of the same molecule?
Answer: The value was 5.93^c.

Question: What about the “24 hour raw pork loin pH” value (swine [2]; Overall ave. of three genetic lines, 1,000 ppm in diet) of the same molecule?
Answer: The value was 5.93^b.

Question: And the “24 hour raw pork loin pH, Increase vs. Control” value (swine [2]; 1,000 ppm in diet)?
Answer: Its value is 0.16.

Question: What about the “raw pork loin color, Minolta L* value” (swine [3]; Line 1 ave., 1,000 ppm in diet) of the same molecule?
Answer: The value was 49.7.

Question: What about the “raw pork loin color, Minolta L* value” (swine [3]; Line 2 ave., 1,000 ppm in diet) of the same molecule?
Answer: Its value is 53.0.

Question: What about the “raw pork loin color, Minolta L* value” (swine [3]; Line 3 ave., 1,000 ppm in diet) of the same molecule?
Answer: Its value is 49.0.

Question: And the “raw pork loin color, Minolta L* value” (swine [3]; overall ave., 1,000 ppm in diet)?
Answer: Its value is 50.5.

Question: Which antioxidant activity [1] does the source give for alpha-tocotrienol here?
Answer: Its antioxidant activity is “greater antioxidant activity than ATA”.

Question: For O=C(O)CCCCC1CCSS1 (stereo not drawn) [LA, alpha-lipoic acid], which “24 hour raw pork loin pH” value (swine [2]; Line 1 ave., 500 ppm in diet) is on record?
Answer: The value was 6.00^b.

Question: And the “24 hour raw pork loin pH” value (swine [2]; Line 2 ave., 500 ppm in diet)?
Answer: Its value is 5.90^b.

Question: What about the “24 hour raw pork loin pH” value (swine [2]; Line 3 ave., 500 ppm in diet) of the same molecule?
Answer: Its value is 5.99^c.

Question: What about the “24 hour raw pork loin pH” value (swine [2]; Overall ave. of three genetic lines, 500 ppm in diet) of the same molecule?
Answer: The value was 5.99^b.

Question: And the “24 hour raw pork loin pH, Increase vs. Control” value (swine [2]; 500 ppm in diet)?
Answer: The value was 0.20.

Question: What about the “raw pork loin color, Minolta L* value” (swine [3]; Line 1 ave., 500 ppm in diet) of the same molecule?
Answer: Its value is 52.0.

Question: And the “raw pork loin color, Minolta L* value” (swine [3]; Line 2 ave., 500 ppm in diet)?
Answer: The value was 50.9.

Question: What about the “raw pork loin color, Minolta L* value” (swine [3]; Line 3 ave., 500 ppm in diet) of the same molecule?
Answer: Its value is 49.1.

Question: And the “raw pork loin color, Minolta L* value” (swine [3]; overall ave., 500 ppm in diet)?
Answer: The value was 50.7.

Question: And the Color Score (swine [4])?
Answer: Its Color Score is “decrease”.

Question: And the “Loin pH” value (swine [4])?
Answer: Its value is “increase”.

Reference: US20040266862A1, “Method of improving animal tissue quality by supplementing the animal diet with mixed tocotrienols” (priority 2003, published 2004)
